From ChEMBL document CHEMBL2016464, “Identification of Inhibitors of NOD1-Induced Nuclear Factor-κB Activation” (ACS Med Chem Lett, 2011)
pIC50: −log10 of the molar value. ≈ marks a conversion by molar mass, not a printed value.

How the values were obtained:
[1] = biological target: T1, Nucleotide-binding oligomerization domain-containing protein 1 (Homo sapiens, UniProt Q9Y239)
T1 sequence (Q9Y239 whole entry): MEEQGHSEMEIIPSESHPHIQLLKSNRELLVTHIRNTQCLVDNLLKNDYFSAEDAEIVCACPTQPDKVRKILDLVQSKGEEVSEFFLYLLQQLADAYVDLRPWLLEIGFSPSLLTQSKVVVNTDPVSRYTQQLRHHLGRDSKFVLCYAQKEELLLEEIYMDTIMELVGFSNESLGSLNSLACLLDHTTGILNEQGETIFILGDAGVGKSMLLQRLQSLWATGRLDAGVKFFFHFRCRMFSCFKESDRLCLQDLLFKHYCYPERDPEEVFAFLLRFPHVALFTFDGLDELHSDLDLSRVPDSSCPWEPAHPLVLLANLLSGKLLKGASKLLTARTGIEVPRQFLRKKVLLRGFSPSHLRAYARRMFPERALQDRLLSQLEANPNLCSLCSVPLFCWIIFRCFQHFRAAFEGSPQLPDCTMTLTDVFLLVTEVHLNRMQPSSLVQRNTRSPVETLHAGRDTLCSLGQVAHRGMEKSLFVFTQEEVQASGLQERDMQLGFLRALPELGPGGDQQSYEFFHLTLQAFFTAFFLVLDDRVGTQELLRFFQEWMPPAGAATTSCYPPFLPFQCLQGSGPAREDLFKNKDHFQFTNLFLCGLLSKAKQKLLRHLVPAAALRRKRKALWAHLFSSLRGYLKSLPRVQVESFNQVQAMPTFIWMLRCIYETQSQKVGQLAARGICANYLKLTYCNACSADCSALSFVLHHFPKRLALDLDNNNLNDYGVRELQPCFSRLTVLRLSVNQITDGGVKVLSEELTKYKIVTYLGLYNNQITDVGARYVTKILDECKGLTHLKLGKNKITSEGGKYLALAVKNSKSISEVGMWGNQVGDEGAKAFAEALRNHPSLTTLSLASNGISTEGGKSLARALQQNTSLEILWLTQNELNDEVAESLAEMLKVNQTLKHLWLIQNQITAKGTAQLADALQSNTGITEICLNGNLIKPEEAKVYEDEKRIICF

[2] = Solubility of the compound at pH 7.4; assay type: physicochemical; conditions: buffer
[3] = cells; conditions: Homo sapiens, HEK-293T, 14 h
Description: Inhibition of TNFalpha-induced NFkappaB activation in HEK293T cells after 14 hrs by luciferase reporter gene assay

[4] = test system: HEK-293T; test: Cytotoxicity against HEK293T cells at 20 uM by alamar blue assay; assay type: cell-based; conditions: human
[5] = biological target: Nucleotide-binding oligomerization domain-containing protein 2 (Homo sapiens, UniProt Q9HC29)
Chain of Nucleotide-binding oligomerization domain-containing protein 2 (Q9HC29 whole entry, the tested form may be a part): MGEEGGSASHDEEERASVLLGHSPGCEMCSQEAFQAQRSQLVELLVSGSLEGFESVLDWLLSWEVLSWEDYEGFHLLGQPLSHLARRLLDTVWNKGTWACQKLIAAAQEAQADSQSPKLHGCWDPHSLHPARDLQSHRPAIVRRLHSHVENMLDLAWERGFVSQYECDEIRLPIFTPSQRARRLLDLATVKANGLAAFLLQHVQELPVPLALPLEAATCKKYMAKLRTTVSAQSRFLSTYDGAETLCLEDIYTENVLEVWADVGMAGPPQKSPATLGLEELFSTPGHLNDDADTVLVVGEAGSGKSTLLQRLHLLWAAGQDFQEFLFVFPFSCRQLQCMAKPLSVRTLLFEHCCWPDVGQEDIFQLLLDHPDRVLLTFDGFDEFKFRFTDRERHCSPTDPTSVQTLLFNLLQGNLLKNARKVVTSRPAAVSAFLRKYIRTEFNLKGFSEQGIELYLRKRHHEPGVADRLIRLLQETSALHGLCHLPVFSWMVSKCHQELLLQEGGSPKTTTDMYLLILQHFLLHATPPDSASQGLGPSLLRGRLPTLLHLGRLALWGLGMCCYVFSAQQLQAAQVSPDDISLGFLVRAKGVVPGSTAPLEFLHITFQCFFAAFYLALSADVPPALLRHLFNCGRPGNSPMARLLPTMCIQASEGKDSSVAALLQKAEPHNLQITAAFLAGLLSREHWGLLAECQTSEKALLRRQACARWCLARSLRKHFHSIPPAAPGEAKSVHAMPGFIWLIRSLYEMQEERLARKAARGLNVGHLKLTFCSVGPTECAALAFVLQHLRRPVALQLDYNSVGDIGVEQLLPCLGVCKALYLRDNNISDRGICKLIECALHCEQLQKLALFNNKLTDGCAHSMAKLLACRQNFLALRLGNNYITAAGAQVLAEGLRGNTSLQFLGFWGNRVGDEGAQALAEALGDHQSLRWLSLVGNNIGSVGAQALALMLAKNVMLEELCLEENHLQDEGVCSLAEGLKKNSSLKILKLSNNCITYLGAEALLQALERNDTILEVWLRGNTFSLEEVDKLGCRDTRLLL

Row | Compound | pIC50 [1] | solubility [2] [µg/mL] | pIC50 [3] | Activity [4] [%] | pIC50 [5]
1 | O=C(C1CC1)N1CCc2cc(S(=O)(=O)N3CCN(c4ccc(Cl)cc4)CC3)ccc21 | < 4.70 | 0.1 (≈ 0.224 µM) | < 4.70 | 0 | < 4.70
2 | CCC(=O)N1CCc2cc(S(=O)(=O)N3CCN(c4ccc(C(C)=O)cc4)CC3)ccc21 | < 4.70 | 0.1 (≈ 0.226 µM) | < 4.70 | 0 | < 4.70
3 | CC(=O)c1ccc(N2CCN(S(=O)(=O)c3ccc4c(c3)CC(C)N4C(=O)C3CC3)CC2)cc1 (racemic) | 4.99 | 0.1 (≈ 0.214 µM) | < 4.70 | 0 | 5.10
4 | Cc1ccc(N2CCN(S(=O)(=O)c3ccc4c(c3)CC(C)N4C(=O)C3CC3)CC2)cc1 (racemic) | < 4.70 | 0.1 (≈ 0.227 µM) | < 4.70 | 0 | < 4.70
5 | CC1Cc2cc(S(=O)(=O)N3CCN(c4ccccc4)CC3)ccc2N1C(=O)C1CC1 (racemic) | < 4.70 | 0.1 (≈ 0.235 µM) | 4.82 | 0 | 4.76
6 | O=C(Nc1ccc(Cl)cc1)c1ccc(CCN2CCc3ccccc3C2)cc1 | < 4.70 | – | < 4.70 | 0 | < 4.70
7 | CCC(=O)N1CCc2cc(S(=O)(=O)N3CCN(c4ccc(Cl)cc4)CC3)ccc21 | < 4.70 | 0.1 (≈ 0.23 µM) | < 4.70 | 0 | < 4.70
8 | O=C(Nc1ccc(CN2CCc3ccccc3C2)cc1)c1ccc(Cl)cc1 | < 4.70 | – | < 4.70 | 0 | < 4.70
